{
  "source": "paper PMC3972617",
  "about": "(Xenobiotica; the fate of foreign compounds in biological …, 2013)",
  "key": {"[1]": {"test_system": "indomethacin-induced small intestinal injury", "test": "Indomethacin-induced enteropathy in mice"}, "[2]": {"test_system": "ketoprofen-induced small intestinal injury", "test": "Ketoprofen-induced enteropathy in mice", "assay_type": "in vivo, male C57BL/6J mice", "conditions": "Inh-1 10 μg/mouse po bid for 2 days before ketoprofen 100 mg/kg ip; 18 h"}, "[3]": {"test_system": "diclofenac (DCF)-induced small intestinal injury", "test": "Diclofenac-induced enteropathy in mice", "assay_type": "in vivo, male C57BL/6J mice"}, "[4]": {"test_system": "primary mouse hepatocytes", "test": "LDH release cytotoxicity in cultured primary mouse hepatocytes", "assay_type": "cell-based", "conditions": "24 h exposure"}, "[5]": {"test": "Pharmacokinetic profiling of Inhibitor-1 in mice", "assay_type": "in vivo", "conditions": "for AUC(0-t): AUC0–24 h"}, "[6]": {"test_system": "diclofenac (DCF)-induced small intestinal injury", "conditions": "Inh-1 given prior to DCF (60 mg/kg, ip); ref LoGuidice et al., 2012; cited from earlier work"}, "[7]": {"conditions": "single oral dose Inh-1 10 μg/mouse 3 h after DCF 60 mg/kg ip, 18 h after DCF"}, "[8]": {"conditions": "C57BL/6J, mouse, plasma, iv, 3 mg/kg, Inh-1 3 mg/kg iv, vehicle pretreatment"}, "[9]": {"conditions": "C57BL/6J, mouse, plasma, po, 3 mg/kg, Inh-1 3 mg/kg po, vehicle pretreatment"}},
  "data": [
    {"compound": "COc1ccc2c(c1)c(CC(=O)O)c(C)n2C(=O)c1ccc(Cl)cc1", "note": "[indomethacin, Indomethacin, reference compound]", "values": [
      {"measurement": "small intestinal mucosal ulceration", "setting": "[1]; single dose of indomethacin alone 10 mg/kg ip, 18 h, majority of lesions in quartiles 2 and 3", "value": "marked mucosal ulceration"}
    ]},
    {"compound": "CCOc1ccc(NC(=S)N(CCO)Cc2cc3cc(C)cc(C)c3[nH]c2=O)cc1", "note": "[Inh-1, 1-((6,8-dimethyl-2-oxo-1,2-dihydroquinolin-3-yl)methyl)-3-(4-ethoxyphenyl)-1-(2-hydroxyethyl)thiourea]", "values": [
      {"measurement": "co-treated mice with an ulcer (one small ulcer)", "setting": "[2]", "value": "1/11"},
      {"measurement": "protection against DCF-induced enteropathy, post-treatment", "setting": "[3]; Inh-1 administered 3-h post-DCF (60 mg/kg, ip)", "value": "partial protection"},
      {"measurement": "average area of total ulcers per mouse versus DCF alone", "setting": "[3]; [7]", "value": "not significantly different"},
      {"measurement": "reduction of average ulcer number per mouse versus DCF controls", "setting": "[3]; [7]", "value": 71, "unit": "%"},
      {"measurement": "LDH release versus solvent controls", "setting": "[4]; Inh-1 100 μM alone", "value": "did not significantly increase LDH release"},
      {"measurement": "effect on DCF concentration-toxic response curve (LDH release)", "setting": "[4]; Inh-1 100 μM with DCF 500 or 1000 μM", "value": "did not alter the concentration-toxic response curve"},
      {"measurement": "AUC(0-t)", "setting": "[5]; [8]", "value": 4380, "unit": "ng·h/mL"},
      {"measurement": "Cmax", "setting": "[5]; [8]", "value": 7190, "unit": "ng/mL"},
      {"measurement": "half-life", "setting": "[5]; C57BL/6J, mouse, plasma, iv, 3 mg/kg, T1/2, Inh-1 3 mg/kg iv, vehicle pretreatment", "value": 42, "unit": "min"},
      {"measurement": "AUC(0-t)", "setting": "[5]; [9]", "value": 925, "unit": "ng·h/mL"},
      {"measurement": "Cmax", "setting": "[5]; [9]", "value": 513, "unit": "ng/mL"},
      {"measurement": "Tmax", "setting": "[5]; C57BL/6J, mouse, plasma, po, 3 mg/kg, Tmax, Inh-1 3 mg/kg po, vehicle pretreatment", "value": 30, "unit": "min"},
      {"measurement": "time at which maximal plasma levels were attained", "setting": "[5]; single oral administration of Inh-1 3 mg/kg", "value": 30, "unit": "min"},
      {"measurement": "protection against DCF-induced enteropathy, pretreatment", "setting": "[6]", "value": "complete protection"},
      {"measurement": "decrease of total area of indomethacin-induced intestinal injury", "setting": "[1]; Inh-1 10 μg/mouse po bid for 2 days, last dose 1 h before indomethacin 10 mg/kg ip, 18 h post-dose", "value": 89, "unit": "%"},
      {"measurement": "NBT staining of jejunal mucosa (oxidoreductive stress)", "setting": "[1]; Inh-1/indomethacin co-treated mice, 1 mM nitroblue tetrazolium incubation", "value": "remained unstained"}
    ]},
    {"compound": "O=C(O)Cc1ccccc1Nc1c(Cl)cccc1Cl", "note": "[DCF, diclofenac, reference compound]", "values": [
      {"measurement": "LDH release from the cells", "setting": "[4]; DCF 1000 μM", "value": "significant increases in LDH release"}
    ]}
  ]
}
